Laboratory results from PubChem BioAssay AID2060488 (Molecular Pharmacology Branch, DTP, NCI, 2025).

Test system: 966289-007-R4-J1-PDC complex spheroid viability
Assay: Anticancer human tumor 966289-007-R4-J1-PDC patient-derived pancreatic adenocarcinoma cell line growth inhibition [GQUAD]
Conditions: for IC50: curve of first compound; for viability, T/C: stronger effect = lower value
Method in brief: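 Tumor cells were grown as complex spheroids with HUVEC endothelial cells and mesenchymal stem cells as stroma. G-quadruplex stabilizers were combined with targeted agents over half-log dilutions from near the clinical Cmax, or from 10 microM.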

[1] = second compound 0.0316 µM, first compound 0.0316 µM
[2] = second compound 0.0316 µM, first compound 0.1 µM
[3] = second compound 0.0316 µM, first compound 0.316 µM
[4] = second compound 0.0316 µM, first compound 1 µM
[5] = second compound 0.0316 µM, first compound 3.16 µM
[6] = second compound 0.0316 µM, first compound 10 µM
[7] = second compound 0.1 µM, first compound 0.0316 µM
[8] = second compound 0.1 µM, first compound 0.1 µM
[9] = second compound 0.1 µM, first compound 0.316 µM
[10] = second compound 0.1 µM, first compound 1 µM
[11] = second compound 0.1 µM, first compound 3.16 µM
[12] = second compound 0.1 µM, first compound 10 µM
[13] = second compound 0.316 µM, first compound 0.0316 µM
[14] = second compound 0.316 µM, first compound 0.1 µM
[15] = second compound 0.316 µM, first compound 0.316 µM
[16] = second compound 0.316 µM, first compound 1 µM
[17] = second compound 0.316 µM, first compound 3.16 µM
[18] = second compound 0.316 µM, first compound 10 µM
[19] = second compound 1 µM, first compound 0.0316 µM
[20] = second compound 1 µM, first compound 0.1 µM
[21] = second compound 1 µM, first compound 0.316 µM
[22] = second compound 1 µM, first compound 1 µM
[23] = second compound 1 µM, first compound 3.16 µM
[24] = second compound 1 µM, first compound 10 µM
[25] = second compound 3.16 µM, first compound 0.0316 µM
[26] = second compound 3.16 µM, first compound 0.1 µM
[27] = second compound 3.16 µM, first compound 0.316 µM
[28] = second compound 3.16 µM, first compound 1 µM
[29] = second compound 3.16 µM, first compound 3.16 µM
[30] = second compound 3.16 µM, first compound 10 µM
[31] = second compound 10 µM, first compound 0.0316 µM
[32] = second compound 10 µM, first compound 0.1 µM
[33] = second compound 10 µM, first compound 0.316 µM
[34] = second compound 10 µM, first compound 1 µM
[35] = second compound 10 µM, first compound 3.16 µM
[36] = second compound 10 µM, first compound 10 µM
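Note: spheroids exposed to the agents for seven days before readout.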
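Throughout, for viability, T/C: percent viability relative to DMSO vehicle control wells taken as 100%.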

With `O=c1[nH]cc(F)c(=O)[nH]1` + Cc1cnc(CNC(=O)c2c(=O)c3ccc(N4CCCN(C)CC4)nc3n3c2sc2ccccc23)cn1 the IC50 (second compound 0.0316 µM) was 152 nM, the IC50 (second compound 0.1 µM) was < 31.6 nM and the IC50 (second compound 0.316 µM) was < 31.6 nM. The IC50 (second compound 1 µM) was < 31.6 nM, the IC50 (second compound 3.16 µM) was < 31.6 nM and the IC50 (second compound 10 µM) was < 31.6 nM. For the same compound, the viability, T/C [1] was 110%, the viability, T/C [2] was 70.7% and the viability, T/C [3] was 13.4%. For the same compound, the viability, T/C [4] was 6.62%, the viability, T/C [5] was 6.16% and the viability, T/C [6] was 7.17%. It also gave a viability, T/C [7] of 35.3%, a viability, T/C [8] of 38.2% and a viability, T/C [9] of 16.7%. The viability, T/C [10] was 9.09%, the viability, T/C [11] was 8.85% and the viability, T/C [12] was 9.1%. For the same compound, the viability, T/C [13] was 11%, the viability, T/C [14] was 14.4% and the viability, T/C [15] was 13.6%. The viability, T/C [16] was 10.8%, the viability, T/C [17] was 10.2% and the viability, T/C [18] was 12.7%. The viability, T/C [19] was 6.94%, the viability, T/C [20] was 8.36% and the viability, T/C [21] was 9.57%. It also gave a viability, T/C [22] of 9.08%, a viability, T/C [23] of 8.58% and a viability, T/C [24] of 8.28%. It also gave a viability, T/C [25] of 4.97%, a viability, T/C [26] of 5.62% and a viability, T/C [27] of 7.29%. It also gave a viability, T/C [28] of 6.64%, a viability, T/C [29] of 6.67% and a viability, T/C [30] of 8.36%. For the same compound, the viability, T/C [31] was 0.04%, the viability, T/C [32] was 0.08% and the viability, T/C [33] was 2.48%. It also gave a viability, T/C [34] of 0.28%, a viability, T/C [35] of 2.43% and a viability, T/C [36] of 0.18%.
Work on `O=c1[nH]cc(F)c(=O)[nH]1` + Cc1[nH]c2ccc(F)cc2c1-c1nc2c3cccnc3c3ncccc3c2[nH]1 yielded an IC50 (second compound 0.0316 µM) of 159 nM, an IC50 (second compound 0.1 µM) of 186 nM and an IC50 (second compound 0.316 µM) of 181 nM. For the same compound, the IC50 (second compound 1 µM) was 164 nM, the IC50 (second compound 3.16 µM) was 150 nM and the IC50 (second compound 10 µM) was 93.4 nM. It also gave a viability, T/C [1] of 111%, a viability, T/C [2] of 74.5% and a viability, T/C [3] of 13.6%. The viability, T/C [4] was 5.76%, the viability, T/C [5] was 6.03% and the viability, T/C [6] was 6.51%. It also gave a viability, T/C [7] of 112%, a viability, T/C [8] of 92.4% and a viability, T/C [9] of 13.9%. The viability, T/C [10] was 6.57%, the viability, T/C [11] was 5.93% and the viability, T/C [12] was 6.8%. For the same compound, the viability, T/C [13] was 95.9%, the viability, T/C [14] was 90.5% and the viability, T/C [15] was 12.1%. For the same compound, the viability, T/C [16] was 7.51%, the viability, T/C [17] was 5.56% and the viability, T/C [18] was 6.35%. For the same compound, the viability, T/C [19] was 96.3%, the viability, T/C [20] was 76.5% and the viability, T/C [21] was 14.8%. It also gave a viability, T/C [22] of 7.21%, a viability, T/C [23] of 6.11% and a viability, T/C [24] of 6.82%. For the same compound, the viability, T/C [25] was 110%, the viability, T/C [26] was 68.8% and the viability, T/C [27] was 15.2%. It also gave a viability, T/C [28] of 9.36%, a viability, T/C [29] of 7.92% and a viability, T/C [30] of 9.72%. The viability, T/C [31] was 114%, the viability, T/C [32] was 46% and the viability, T/C [33] was 14.6%. The viability, T/C [34] was 9.18%, the viability, T/C [35] was 6.61% and the viability, T/C [36] was 7.61%.
`CC1COCCN1c1cc(-c2ccnn2C)c2ccnc(-c3ccn[nH]3)c2n1` (stereo not drawn) + Cc1[nH]c2ccc(F)cc2c1-c1nc2c3cccnc3c3ncccc3c2[nH]1 was tested, and the IC50 (second compound 0.0316 µM) was 170 nM, the IC50 (second compound 0.1 µM) was 161 nM and the IC50 (second compound 0.316 µM) was 172 nM. The IC50 (second compound 1 µM) was 177 nM, the IC50 (second compound 3.16 µM) was 79.9 nM and the IC50 (second compound 10 µM) was 69.3 nM. It also gave a viability, T/C [1] of 114%, a viability, T/C [2] of 77.8% and a viability, T/C [3] of 17.3%. For the same compound, the viability, T/C [4] was 5.52%, the viability, T/C [5] was 4.65% and the viability, T/C [6] was 3.39%. For the same compound, the viability, T/C [7] was 115%, the viability, T/C [8] was 73.2% and the viability, T/C [9] was 17%. The viability, T/C [10] was 6.08%, the viability, T/C [11] was 4.45% and the viability, T/C [12] was 3%. For the same compound, the viability, T/C [13] was 110%, the viability, T/C [14] was 80.3% and the viability, T/C [15] was 15.6%. The viability, T/C [16] was 7.15%, the viability, T/C [17] was 4.49% and the viability, T/C [18] was 3.06%. It also gave a viability, T/C [19] of 105%, a viability, T/C [20] of 78.1% and a viability, T/C [21] of 21.1%. The viability, T/C [22] was 8.54%, the viability, T/C [23] was 5.16% and the viability, T/C [24] was 2.92%. For the same compound, the viability, T/C [25] was 94.4%, the viability, T/C [26] was 39.3% and the viability, T/C [27] was 8.27%. For the same compound, the viability, T/C [28] was 7.24%, the viability, T/C [29] was 5.24% and the viability, T/C [30] was 4.9%. It also gave a viability, T/C [31] of 96.4%, a viability, T/C [32] of 28.4% and a viability, T/C [33] of 5.29%. For the same compound, the viability, T/C [34] was 5.42%, the viability, T/C [35] was 5.48% and the viability, T/C [36] was 5.5%.
For `COc1ncnc(C2CC2)c1-c1ncc2cnn(Cc3ccc(-c4nc(C(F)(F)F)cn4C(C)C)cc3)c2n1` + Cc1[nH]c2ccc(F)cc2c1-c1nc2c3cccnc3c3ncccc3c2[nH]1, the IC50 (second compound 0.0316 µM) was > 10000 nM, the IC50 (second compound 0.1 µM) was > 10000 nM and the IC50 (second compound 0.316 µM) was > 10000 nM. The IC50 (second compound 1 µM) was > 10000 nM, the IC50 (second compound 3.16 µM) was > 10000 nM and the IC50 (second compound 10 µM) was > 10000 nM. The viability, T/C [1] was 106%, the viability, T/C [2] was 99.2% and the viability, T/C [3] was 104%. For the same compound, the viability, T/C [4] was 99.7%, the viability, T/C [5] was 104% and the viability, T/C [6] was 107%. For the same compound, the viability, T/C [7] was 106%, the viability, T/C [8] was 105% and the viability, T/C [9] was 104%. It also gave a viability, T/C [10] of 99.6%, a viability, T/C [11] of 100% and a viability, T/C [12] of 107%. The viability, T/C [13] was 101%, the viability, T/C [14] was 99.8% and the viability, T/C [15] was 107%. For the same compound, the viability, T/C [16] was 100%, the viability, T/C [17] was 102% and the viability, T/C [18] was 96.5%. It also gave a viability, T/C [19] of 98.2%, a viability, T/C [20] of 105% and a viability, T/C [21] of 107%. It also gave a viability, T/C [22] of 104%, a viability, T/C [23] of 108% and a viability, T/C [24] of 110%. It also gave a viability, T/C [25] of 107%, a viability, T/C [26] of 106% and a viability, T/C [27] of 108%. It also gave a viability, T/C [28] of 108%, a viability, T/C [29] of 109% and a viability, T/C [30] of 110%. It also gave a viability, T/C [31] of 107%, a viability, T/C [32] of 104% and a viability, T/C [33] of 109%. It also gave a viability, T/C [34] of 104%, a viability, T/C [35] of 111% and a viability, T/C [36] of 111%.
